One test concerns U373 cells. The test can be described thus: In vitro cytotoxicity assays with small molecules followed by Maraba virus infection. The settings on record: for enhancement of viral oncolysis (cell viability): viability 48 h later.
For test [1], the system named is OVCAR-8 (ovarian carcinoma) cells. In kind it is cell-based, human.
Test [2] concerns NCI-H226 (non-small cell lung carcinoma) cells. In words: Genome-wide synthetic lethal RNAi screen with Maraba virus infection, resazurin cell viability. The settings on record: synthetic lethal hits, siRNA against the gene plus Maraba virus. A general note: The colour change of resazurin is a common sign of viable cells or microbes.
The test system of test [3] is U373 (glioblastoma) cells. In kind it is cell-based, human.
[4] abbreviates: synthetic lethal hits, siRNA against the gene plus Maraba virus.
Setting [5] is: siRNA against the named gene plus Maraba virus, synthetic lethal hit list.

Read-outs that look alike come from different tables or passages of the source. Bounds are passed on as bounds.

As to `COc1cc(-c2cccc(C(N)=O)c2)cc(C=O)c1O` [Compound 2, 3′-formyl-4′-hydroxy-5′-methoxy-[1,1′-biphenyl]-3-carboxamide], in the test with U373 cells, the “lowest, maximally effective dose in cell culture experiments” value was 20 µM. The “combination index (CI) with Maraba virus” value in the test with U373 cells (U373, across a range of doses and MOIs) is less than 1.0. Also, the “enhancement of viral oncolysis (cell viability)” value in the test on U373 cells (U373, drug 4 h prior to Maraba virus infection) was “but not 4 hours”; in the test on U373 cells (U373, drug 48 h prior to Maraba virus infection), “greatly enhanced viral oncolysis”.
With BMP4, in test [1] (setting [4]), the “COMPOSITE MAD SCORE OVCAR8” value was −2.516. Also, the “COMPOSITE MAD SCORE NCIH226” value in test [2] was −2.642. Further, the “COMPOSITE MAD SCORE U373” value in test [3] (setting [4]) is −2.038.
Regarding NODAL, the “COMPOSITE MAD SCORE OVCAR8” value in test [1] (setting [5]) is recorded as −4.721. Besides, in test [3] (setting [5]), the “COMPOSITE MAD SCORE U373” value is −2.315.
With tunicamycin [reference compound], the “virus-mediated killing after chemically induced ER preload” value with U373 cells (pulse 48 hours before virus infection (5 ug/mL 24 h, 24 h washout)) was “enhance virus-mediated killing”.
